Counter-ions that a name gives are not always drawn. Like-named read-outs stand apart in the source and are kept apart here.
Legend:
Cdk3 = Cdk3 (Homo sapiens, UniProt Q00526); assay: Cdk3 inhibition; format: biochemical
Source text: (§1) Further inhibition results for subject compounds of the invention against other CDKs and further kinases are shown in Table 5, Table II and described in Example 6.
(§2) Table 3, Table 4, Table 5 and Table II show the results obtained for inhibition of a broad range of such kinases for subject compounds of the invention.

Cdk1 = Cdk1 (Homo sapiens, UniProt P06493); assay: Cdk1 inhibition; format: biochemical
Source text: as §1, §2

Cdk4 = Cdk4 (Homo sapiens, UniProt P11802); assay: Cdk4 inhibition; format: biochemical
Source text: as §1, §2

Fyn = target: T1, Fyn (Homo sapiens, UniProt P06241); assay: Fyn kinase assay; format: biochemical
T1 construct: purchased Upstate 14-441
Method: • 1. Assay Buffer: 200 mM Tris-HCl pH 7.5, 0.4 mM EGTA, 0.4 mM sodium orthovanadate. • 2. Magnesium/ATP Cocktail (Catalog #20-113): 500 μM cold ATP and 75 mM magnesium chloride in 20 mM MOPS, pH 7.2, 25 mM α-glycerol phosphate, 5 mM EGTA, 1 mM sodium orthovanadate, 1 mM dithiothreitol. • 3. [γ-^32P]ATP: Stock 1 mCi/100 μl (3000 Ci/mmol, obtained from DuPont-NEN). Make 10 μl aliquots (100 μCi/vial). Before starting the assay, dilute an aliquot with 90 μl of Magnesium/ATP Cocktail. • 4. Enzyme Dilution Buffer: 20 mM MOPS pH 7.5, 1 mM EDTA, 0.01% Brij-35, 5% glycerol, 0.1% β-mercaptoethanol, 1 mg/ml BSA. • 5. Fyn: Dilute with Enzyme Dilution Buffer to prepare a 4 ng-40 ng/μl stock. Use 2.5 μl per assay point. • 6. Src Substrate Peptide (Catalog #12-140): Dilute to 2.5 mM with distilled water. Use 2.5 μl per say point.
• 1. Add 6.25 μl of Assay Buffer per assay. • 2. Add 2.5 μl of diluted Fyn. • 3. Add 2.5 μl Src Substrate peptide (250 μM). • 4. Add 3.75 μl distilled water. • 5. Add 10 μl of the [γ-^32P]ATP solution. • 6. Incubate for 10 minutes at 30° C. • 7. Transfer a 20 μl aliquot onto the center of a 2 cm×2 cm P81 paper. • 8. Wash assay squares three times with 0.75% phosphoric acid for 5 minutes per wash. • 9. Wash assay squares once with acetone for 1-2 minutes. • 10. Transfer assay squares to a scintillation vial and add 1 ml scintillation cocktail. • 11. Read in scintillation counter. Compare cpm of enzyme samples to cpm of control samples that contain no enzyme (background control).

HCT-116 cells = assay: Clonogenic survival assay with HCT-116 cells; format: cell-based; conditions: Homo sapiens, 24 hour compound exposure, read-out: Clonogenic survival IC50, HCT-116
CEM/C2 = assay: SRB cytotoxicity, camptothecin resistant cells; format: cell-based, human; conditions: for IC50: Homo sapiens, CEM/C2, 72 h, SRB
Method: In these experiments, the P-glycoprotein expressing NCI-Adr resistant subline (Vickers et al., 1989. Mol Endocrinology 3 (1):157-164) was used. […] Briefly, cells were plated in 96 well dishes 24 hours prior to compound addition. Where noted, they were exposed to verapamil for 4 hours prior to compound addition and then throughout the treatment period (72 hours). The assay was terminated with the addition of cold TCA to a final concentration of 10% and the plates were incubated for one hour at 4° C. The plates were then washed 5 times with water and 100 μl of a Sulforhodamine B solution (4%) was added to each well. The plate was then incubated for 10 minutes at room temperature before removal of unbound dye by washing with 1% acetic acid.
The Camptothecin resistant CEM/C2 cells were derived from the T lymphoblastoid leukemia cell line CCRF/CEM by selection in the presence of Camptothecin in vitro (Kapoor et al., 1995. Oncology Research 7; 83-95, ATCC).
The effects of A37 and B16 were evaluated in the CCRF/CEM and CEM/C2 cells using the same SRB assay as described above, with 72-hour drug exposure.

[1] = read-out: FYN Inhibition (IC50)

T1 sequence (P06241 whole entry): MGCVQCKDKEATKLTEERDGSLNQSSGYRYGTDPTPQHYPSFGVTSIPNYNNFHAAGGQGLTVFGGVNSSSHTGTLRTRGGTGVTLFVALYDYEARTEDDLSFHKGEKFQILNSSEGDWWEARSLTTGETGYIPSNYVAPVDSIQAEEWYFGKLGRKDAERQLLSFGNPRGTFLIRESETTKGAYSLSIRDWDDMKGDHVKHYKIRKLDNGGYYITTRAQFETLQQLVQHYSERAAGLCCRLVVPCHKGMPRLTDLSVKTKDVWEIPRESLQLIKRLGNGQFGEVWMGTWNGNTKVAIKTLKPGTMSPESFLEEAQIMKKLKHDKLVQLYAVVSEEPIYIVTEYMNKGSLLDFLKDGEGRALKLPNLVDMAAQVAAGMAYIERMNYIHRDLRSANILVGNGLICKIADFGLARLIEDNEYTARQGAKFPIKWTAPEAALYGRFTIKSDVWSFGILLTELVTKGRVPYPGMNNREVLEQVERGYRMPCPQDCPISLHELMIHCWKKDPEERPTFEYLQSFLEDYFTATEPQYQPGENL
Cdk4, sequence (P11802 whole entry, species assumed): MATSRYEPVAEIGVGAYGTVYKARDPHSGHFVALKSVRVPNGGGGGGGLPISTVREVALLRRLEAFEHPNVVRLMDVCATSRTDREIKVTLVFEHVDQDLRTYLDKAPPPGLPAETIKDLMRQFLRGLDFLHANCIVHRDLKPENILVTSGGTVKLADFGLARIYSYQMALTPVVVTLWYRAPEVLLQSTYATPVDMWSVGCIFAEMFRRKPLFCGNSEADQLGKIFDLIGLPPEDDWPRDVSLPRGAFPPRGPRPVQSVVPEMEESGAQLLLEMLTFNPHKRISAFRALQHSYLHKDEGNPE
Cdk4, sequence (P24385 whole entry partner, species assumed): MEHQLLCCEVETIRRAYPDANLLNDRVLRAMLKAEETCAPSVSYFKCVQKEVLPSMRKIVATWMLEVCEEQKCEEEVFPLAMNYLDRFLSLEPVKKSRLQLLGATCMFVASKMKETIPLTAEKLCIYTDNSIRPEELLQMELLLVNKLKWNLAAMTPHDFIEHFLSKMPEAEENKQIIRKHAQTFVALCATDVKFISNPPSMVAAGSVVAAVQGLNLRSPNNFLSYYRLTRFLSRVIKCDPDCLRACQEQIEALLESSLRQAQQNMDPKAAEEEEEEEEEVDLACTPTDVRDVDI
Cdk1, sequence (P06493 whole entry, species assumed): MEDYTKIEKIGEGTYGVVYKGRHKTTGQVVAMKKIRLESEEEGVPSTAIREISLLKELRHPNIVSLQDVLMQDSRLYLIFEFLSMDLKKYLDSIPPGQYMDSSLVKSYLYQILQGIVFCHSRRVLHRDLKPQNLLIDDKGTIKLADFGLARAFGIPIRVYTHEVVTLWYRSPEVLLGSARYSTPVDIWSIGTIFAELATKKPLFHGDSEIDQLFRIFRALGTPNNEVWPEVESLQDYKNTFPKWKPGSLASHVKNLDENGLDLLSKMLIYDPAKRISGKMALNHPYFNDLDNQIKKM
Cdk1, sequence (P14635 whole entry partner, species assumed): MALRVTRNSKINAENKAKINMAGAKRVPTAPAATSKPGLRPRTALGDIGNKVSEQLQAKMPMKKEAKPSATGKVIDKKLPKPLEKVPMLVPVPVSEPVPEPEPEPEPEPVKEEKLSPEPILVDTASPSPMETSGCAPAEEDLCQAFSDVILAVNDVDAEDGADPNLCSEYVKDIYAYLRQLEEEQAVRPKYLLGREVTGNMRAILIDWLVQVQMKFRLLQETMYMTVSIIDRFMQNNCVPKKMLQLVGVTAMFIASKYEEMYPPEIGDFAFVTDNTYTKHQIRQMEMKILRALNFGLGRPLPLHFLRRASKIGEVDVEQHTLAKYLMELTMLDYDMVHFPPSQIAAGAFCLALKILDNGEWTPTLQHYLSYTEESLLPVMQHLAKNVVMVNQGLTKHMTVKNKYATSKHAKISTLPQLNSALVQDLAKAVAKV
Cdk3, sequence (Q00526 whole entry, species assumed): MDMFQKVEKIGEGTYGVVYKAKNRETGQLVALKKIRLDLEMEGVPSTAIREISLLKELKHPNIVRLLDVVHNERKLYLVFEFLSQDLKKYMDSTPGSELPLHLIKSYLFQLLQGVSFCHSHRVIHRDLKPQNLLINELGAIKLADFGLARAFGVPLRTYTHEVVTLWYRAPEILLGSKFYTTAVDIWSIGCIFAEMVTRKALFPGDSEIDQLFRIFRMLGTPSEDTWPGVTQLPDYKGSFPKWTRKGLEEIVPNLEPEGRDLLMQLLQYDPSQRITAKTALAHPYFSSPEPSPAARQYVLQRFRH
Cdk3, sequence (P24864 whole entry partner, species assumed): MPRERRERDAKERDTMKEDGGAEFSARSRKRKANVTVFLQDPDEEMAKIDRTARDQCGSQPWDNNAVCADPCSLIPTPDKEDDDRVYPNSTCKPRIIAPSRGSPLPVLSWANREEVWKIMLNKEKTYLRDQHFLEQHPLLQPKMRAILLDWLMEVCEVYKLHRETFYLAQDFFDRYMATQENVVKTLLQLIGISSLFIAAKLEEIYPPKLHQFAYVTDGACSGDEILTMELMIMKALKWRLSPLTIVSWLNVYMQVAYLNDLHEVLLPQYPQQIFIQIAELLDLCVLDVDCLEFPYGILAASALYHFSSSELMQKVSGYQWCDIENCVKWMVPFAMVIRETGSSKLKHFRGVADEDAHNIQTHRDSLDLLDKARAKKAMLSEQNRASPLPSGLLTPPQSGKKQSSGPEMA

CC(C)N1CCN(C(=O)COc2ccc(-c3n[nH]c4c3C(=O)c3c(NC(=O)NN5CCOCC5)cccc3-4)cc2)CC1 [Compound A37]
IC50 (Cdk3): < 5 nM
IC50 (Cdk1): < 50 nM
IC50 (Cdk4): < 50 nM
IC50 (Fyn; [1]): < 100 nM
IC50 (HCT-116 cells): < 50 nM
RR (relative resistance) CEM/C2 vs CEM (CEM/C2): 0.72
IC50 (CEM/C2): 15.3 nM

COCCN1CCN(Cc2ccc(-c3n[nH]c4c3C(=O)c3c(NC(=O)NN5CCOCC5)cccc3-4)cc2)CC1 [Compound B16, N-[3-(4-{[4-(2-methoxyethyl)piperazinyl]methyl}phenyl)-4-oxoindeno[2,3-d]pyrazol-5-yl](morpholin-4-ylamino)carboxamide dihydrochloride]
IC50 (Cdk3): < 5 nM
IC50 (Cdk1): < 5 nM
IC50 (Cdk4): > 100 nM
IC50 (Fyn; kinase panel, 10 μM ATP, read-out: Fyn IC50): < 100 nM
IC50 (Fyn; [1]): < 50 nM
IC50 (HCT-116 cells): < 100 nM
RR (relative resistance) CEM/C2 vs CEM (CEM/C2): 1.01
IC50 (CEM/C2): 25.3 nM
